Test results reported in patent US9833497B2, “Human originated EGF domain proteins and use of the same” (CHENGDU SOURCEBIO LIMITED-LIABILITY COMPANY, priority 2013, dated 2017).

Tests used:
Format in all cases: cell-based
Enterobacter cloacae = assay: MIC against Gram-negative bacteria: Enterobacter cloacae; settings: 5×10^5 CFU/mL
In short: (§1)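 Purified recombinant human EGF domain proteins are tested by broth dilution in LB against a 5×10^5 CFU/mL inoculum, with two-fold serial dilutions run in triplicate. Plates are incubated at 37° C with shaking, and the MIC is read as the lowest protein concentration without growth.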

Moraxella catarrhalis = assay: MIC against Gram-negative bacteria: Moraxella catarrhalis; settings: 5×10^5 CFU/mL
In short: as §1

E. coli DH5α = assay: Antibacterial activity: MIC and growth curve against E. coli DH5α in 96-well plate; settings: minimal inhibitory concentration against E. coli DH5α; 96-well plate, 5×10^5 CFU/mL, 37° C., judged after 8 h
In short: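 MIC taken as lowest protein level with no bacterial growth, tracked by A600 every 30 min during 37 °C, 175 rpm culture. Two-fold protein series 50-12.5 μg/mL final, triplicate wells, against 5×10^5 CFU/mL of LB-washed mid-log cells.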

Proteus mirabilis = assay: MIC against Gram-negative bacteria: Proteus mirabilis; settings: 5×10^5 CFU/mL
In short: as §1

Citrobacter diversus = assay: MIC against Gram-negative bacteria: Citrobacter diversus; settings: 5×10^5 CFU/mL
In short: as §1

Aeromonas hydrophila = assay: MIC against Gram-negative bacteria: Aeromonas hydrophila; settings: 5×10^5 CFU/mL
In short: as §1

Pseudomonas aeruginosa = assay: MIC against Gram-negative bacteria: Pseudomonas aeruginosa; settings: 5×10^5 CFU/mL
In short: as §1

Proteus vulgaris = assay: MIC against Gram-negative bacteria: Proteus vulgaris; settings: 5×10^5 CFU/mL
In short: as §1

E. coli BL21 = assay: MIC against Gram-negative bacteria: E. coli BL21; settings: 5×10^5 CFU/mL
In short: as §1

Klebsiella pneumonia = assay: MIC against Gram-negative bacteria: Klebsiella pneumonia; settings: 5×10^5 CFU/mL
In short: as §1

Serratia marcescens = assay: MIC against Gram-negative bacteria: Serratia marcescens; settings: 5×10^5 CFU/mL
In short: as §1

[1] = Enterobacter cloacae, 10 h cultivation at 37° C.
[2] = Moraxella catarrhalis, 10 h cultivation at 37° C.
[3] = Proteus mirabilis, 10 h cultivation at 37° C.
[4] = Citrobacter diversus, 10 h cultivation at 37° C.
[5] = Aeromonas hydrophila, 10 h cultivation at 37° C.
[6] = Pseudomonas aeruginosa, 10 h cultivation at 37° C.
[7] = Proteus vulgaris, 10 h cultivation at 37° C.
[8] = Klebsiella pneumonia, 10 h cultivation at 37° C.
[9] = Serratia marcescens, 10 h cultivation at 37° C.
[10] = Enterobacter cloacae, 96-well plate, 37° C., 10 h
[11] = Moraxella catarrhalis, 96-well plate, 37° C., 10 h
[12] = Proteus mirabilis, 96-well plate, 37° C., 10 h
[13] = Citrobacter diversus, 96-well plate, 37° C., 10 h
[14] = Aeromonas hydrophila, 96-well plate, 37° C., 10 h
[15] = Pseudomonas aeruginosa, 96-well plate, 37° C., 10 h
[16] = Proteus vulgaris, 96-well plate, 37° C., 10 h
[17] = Klebsiella pneumonia, 96-well plate, 37° C., 10 h
[18] = Serratia marcescens, 96-well plate, 37° C., 10 h
[19] = 10 h cultivation at 37° C., two-fold serial dilution

With “PRT1387 (IMDDCSTNCNGNGECISGHCHCFPGFLGPDCA; listed as Homo sapiens)” the “MIC against E. cloacae” value (Enterobacter cloacae; [1]) was 12.5 µg/mL, the “MIC against M. catarrhalis” value (Moraxella catarrhalis; [2]) was 12.5 µg/mL and the MIC (E. coli DH5α) was 12.5 µg/mL. The “MIC against P. mirabilis” value (Proteus mirabilis; [3]) was 25 µg/mL, the “MIC against C. diversus” value (Citrobacter diversus; [4]) was 25 µg/mL and the “MIC against A. hydrophila” value (Aeromonas hydrophila; [5]) was 50 µg/mL. The “MIC against P. aeruginosa” value (Pseudomonas aeruginosa; [6]) was 50 µg/mL, the “MIC against P. vulgaris” value (Proteus vulgaris; [7]) was 12.5 µg/mL and the “MIC against E. coli BL21” value (E. coli BL21; 10 h cultivation at 37° C.) was 12.5 µg/mL. For the same substance, the “MIC against K. pneumonia” value (Klebsiella pneumonia; [8]) was 25 µg/mL and the “MIC against S. marcescens” value (Serratia marcescens; [9]) was 25 µg/mL.
In the case of “PRT1295 (RTSPCDNFDCQNGAQCIVRINEPICQCLPGYQGEKCE; listed as Homo sapiens)”, the “MIC against E. cloacae” value (Enterobacter cloacae; [10]) is reported as 12.5 µg/mL, the “MIC against M. catarrhalis” value (Moraxella catarrhalis; [11]) is reported as 50 µg/mL and the MIC (E. coli DH5α) is reported as 12.5 µg/mL. The “MIC against P. mirabilis” value (Proteus mirabilis; [12]) was 12.5 µg/mL, the “MIC against C. diversus” value (Citrobacter diversus; [13]) was 12.5 µg/mL and the “MIC against A. hydrophila” value (Aeromonas hydrophila; [14]) was 50 µg/mL. For the same substance, the “MIC against P. aeruginosa” value (Pseudomonas aeruginosa; [15]) was 12.5 µg/mL, the “MIC against P. vulgaris” value (Proteus vulgaris; [16]) was 50 µg/mL and the “MIC against E. coli BL21” value (E. coli BL21; 96-well plate, 37° C., 10 h) was 50 µg/mL. The “MIC against K. pneumonia” value (Klebsiella pneumonia; [17]) was 50 µg/mL and the “MIC against S. marcescens” value (Serratia marcescens; [18]) was 12.5 µg/mL.
In the case of “PRT1421 (ATQSCNDLCEHFCVPNPDQPGSYSCMCETGYRLAADQHRCE; listed as Homo sapiens)”, the “MIC against E. cloacae” value (Enterobacter cloacae; [1]) is reported as 12.5 µg/mL, the “MIC against M. catarrhalis” value (Moraxella catarrhalis; [2]) is reported as 12.5 µg/mL and the MIC (E. coli DH5α) is reported as 12.5 µg/mL. For the same substance, the “MIC against P. mirabilis” value (Proteus mirabilis; [3]) was 25 µg/mL, the “MIC against C. diversus” value (Citrobacter diversus; [4]) was 25 µg/mL and the “MIC against A. hydrophila” value (Aeromonas hydrophila; [5]) was 50 µg/mL. The “MIC against P. aeruginosa” value (Pseudomonas aeruginosa; [6]) was 12.5 µg/mL, the “MIC against P. vulgaris” value (Proteus vulgaris; [7]) was 12.5 µg/mL and the “MIC against E. coli BL21” value (E. coli BL21; 10 h cultivation at 37° C.) was 50 µg/mL. For the same substance, the “MIC against K. pneumonia” value (Klebsiella pneumonia; [8]) was 50 µg/mL and the “MIC against S. marcescens” value (Serratia marcescens; [9]) was 25 µg/mL.
For “PRT853 (DLNECGLKPRPCKHRCMNTYGSYKCYCLNGYMLMPDGSCS; listed as Homo sapiens)”, the “MIC (μg/mL) E. cloacae” value (Enterobacter cloacae; E. cloacae, 10 h cultivation at 37° C.) was 25 µg/mL, the “MIC (μg/mL) M. catarrhalis” value (Moraxella catarrhalis; M. catarrhalis, 10 h cultivation at 37° C.) was 50 µg/mL and the MIC (E. coli DH5α) was 25 µg/mL. For the same substance, the “MIC (μg/mL) P. mirabilis” value (Proteus mirabilis; P. mirabilis, 10 h cultivation at 37° C.) was 25 µg/mL, the “MIC (μg/mL) C. diversus” value (Citrobacter diversus; C. diversus, 10 h cultivation at 37° C.) was 25 µg/mL and the “MIC (μg/mL) A. hydrophila” value (Aeromonas hydrophila; A. hydrophila, 10 h cultivation at 37° C.) was 12.5 µg/mL. For the same substance, the “MIC (μg/mL) P. aeruginosa” value (Pseudomonas aeruginosa; P. aeruginosa, 10 h cultivation at 37° C.) was 25 µg/mL, the “MIC (μg/mL) P. vulgaris” value (Proteus vulgaris; P. vulgaris, 10 h cultivation at 37° C.) was 25 µg/mL and the “MIC (μg/mL) E. coli BL21” value (E. coli BL21; 10 h cultivation at 37° C.) was 12.5 µg/mL. The “MIC (μg/mL) K. pneumonia” value (Klebsiella pneumonia; K. pneumonia, 10 h cultivation at 37° C.) was 50 µg/mL and the “MIC (μg/mL) S. marcescens” value (Serratia marcescens; S. marcescens, 10 h cultivation at 37° C.) was 12.5 µg/mL.
With “PRT100 (DVNECTSGQNPCHSSTHCLNNVGSYQCRCRPGWQPIPGSPNGPNNTVCE; listed as Homo sapiens)” the “MIC (μg/mL) E. cloacae” value (Enterobacter cloacae; [10]) was 12.5 µg/mL, the “MIC (μg/mL) M. catarrhalis” value (Moraxella catarrhalis; [11]) was 12.5 µg/mL and the MIC (E. coli DH5α) was 12.5 µg/mL. For the same substance, the “MIC (μg/mL) P. mirabilis” value (Proteus mirabilis; [12]) was 12.5 µg/mL, the “MIC (μg/mL) C. diversus” value (Citrobacter diversus; [13]) was 12.5 µg/mL and the “MIC (μg/mL) A. hydrophila” value (Aeromonas hydrophila; [14]) was 12.5 µg/mL. For the same substance, the “MIC (μg/mL) P. aeruginosa” value (Pseudomonas aeruginosa; [15]) was 12.5 µg/mL, the “MIC (μg/mL) P. vulgaris” value (Proteus vulgaris; [16]) was 25 µg/mL and the “MIC (μg/mL) E. coli BL21” value (E. coli BL21; 96-well plate, 37° C., 10 h) was 12.5 µg/mL. For the same substance, the “MIC (μg/mL) K. pneumonia” value (Klebsiella pneumonia; [17]) was 12.5 µg/mL and the “MIC (μg/mL) S. marcescens” value (Serratia marcescens; [18]) was 12.5 µg/mL.
In the case of “PRT1193 (DANECEGKPCLNAFSCKNLIGGYYCDCIPGWKGINCH; listed as Homo sapiens)”, the “MIC E. cloacae” value (Enterobacter cloacae; [19]) is reported as 12.5 µg/mL, the “MIC M. catarrhalis” value (Moraxella catarrhalis; [19]) is reported as 12.5 µg/mL and the MIC (E. coli DH5α) is reported as 12.5 µg/mL. The “MIC P. mirabilis” value (Proteus mirabilis; [19]) was 50 µg/mL, the “MIC C. diversus” value (Citrobacter diversus; [19]) was 25 µg/mL and the “MIC A. hydrophila” value (Aeromonas hydrophila; [19]) was 12.5 µg/mL. For the same substance, the “MIC P. aeruginosa” value (Pseudomonas aeruginosa; [19]) was 12.5 µg/mL, the “MIC P. vulgaris” value (Proteus vulgaris; [19]) was 25 µg/mL and the “MIC E. coli BL21” value (E. coli BL21; [19]) was 12.5 µg/mL. The “MIC K. pneumonia” value (Klebsiella pneumonia; [19]) was 25 µg/mL and the “MIC S. marcescens” value (Serratia marcescens; [19]) was 12.5 µg/mL.
